Data set [1] relates to HUVECs. The experiment in a line: Capillary-like tube formation assay (tubulogenesis). In kind it is cell-based, human. The following applies: for pIC50: Homo sapiens, HUVEC, endothelial tubule network assay, anti-angiogenic activity, read-out: IC50 value; for tubule formation: 6 h. A digest of the protocol: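 HUVECs seeded on Matrigel (regular or reduced growth factor) in incomplete ECM basal medium, treated with compound for 6 h; VEGF 50 ng/mL positive and sunitinib 50 nM negative controls. Calcein-AM-stained tubules imaged at 10× and tubule length expressed as % of 0.1% DMSO vehicle.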

In the next data set the test system is HCT116 colon tumor. The experiment in a line: HCT116 colon tumor model in nude mice. In kind it is in vivo. As to the method: FIG. 12 represents Compound 1 inhibited tumor growth in vivo. Tumor sizes were recorded every alternate day by Vernier caliper measurements and calculated as [4/3*[…]*(length/2)*(width/2)]. (A) Nude mice with induced HCT116 tumor were given vehicle to the control group, sunitinib at (40 mg/kg) as a standard drug given orally and Compound 1 at (25 mg/kg) through IP route for 21 days and tumor regression was calculated for all groups. (B) Nude Mice with induced HCT116 colon tumor were given both, sunitinib and Compound 1 at (25 mg/kg) intra-muscularly for 15 days after attaining a tumor size of 100 mm^3, tumor volume reduction for treated groups were calculated and compared with control. Data are expressed as means±S.E.M. (6 mice/group) with significant difference compared with control at p<0.0001.
HCT 116 (Human colon cancer cell line) cells were trypsinised and the pellet was dissolved in ice chilled 1×PBS. HCT 116 cells suspension to a concentration of (1*10^6) cells in 50 μL PBS solution, were left on ice with occasional agitation. Mice were anaesthetized with ketamine: xylazine (100:10 mg/kg), abdominal side area was shaved and sterilized using 70% ethanol. 50 μL of cell suspension was injected slowly subcutaneously to all the mice. After 2 days, booster dose of tumor cells was injected to all mice as performed previously. The growth of the tumor was measured by using vernier caliper on day 2, 4, 6, 8, 10, 12, 14, 16 18, 20, 23 and presented in the form of tumor volume (mm^3)=[4/3*π*(long axis/2)*(short axis/2)]. After attaining a volume of 100 mm^3 of tumor size, all mice were distributed equally (n=6−8) in 3 groups of controls received vehicle (Olive oil). Sutent (25 mg/kg) as a positive control was given orally and Compound 1 (25 mg/kg) dissolved in olive oil was injected intra-muscularly for 15 days and the tumor size regression was measured on every alternate day as described previously. Post 15 days of treatment, mice from all groups were sacrificed and tumor was excised out and processed further for immunohistochemistry and molecular analysis.

The next data set concerns chick CAM. Description: CAM (chick chorio-allantoic membrane) assay. In kind it is in vivo. The following applies: 2 μM. The protocol: (A) Chick CAM assays were used to observe the effect of Compound 1 on angiogenesis in vivo. 1 mm^2 window was made in 8 days old chicken eggs to expose the CAM, and a gelatin disc ([…]) treated with vehicle (0.1% DMSO), sunitinib and Compound 1 at a indicated concentrations were placed on the CAM surface. Post 4 days of incubation, the discs and associated CAM were photographed and excised out, for hemoglobin estimation by drapkin's reagent. (B) Blood vessel density was calculated and Hb. concentration was measured and representative graph was plotted for the control and treatment group and data are represented as mean±SEM with significant difference from control at *p<0.05, **p<0.01 and ***p<0.001.
The eggs were incubated horizontally for 3 days at 37° C. in a 60% humidified atmosphere, using a hybridization incubator (combi-SV 12) with one hour scheduled rotation. Post 3 days of incubation, 2-3 mL of albumin was aspirated from the acute pole of the egg to create false air sac directly over the CAM. Post fertilization (Day 8), a fine blade was used to make an approximate 0.5 cc square incision on the eggshell under sterile conditions and the eggshell window fragment was removed to access the CAM beneath. A piece of gelatin sponge embedded in Compound 1 (500 nM and 250 nM) and sunitinib (2 μM) individually were placed on the CAM of the chicken embryo and incubated for 12 days. Sterile parafilm tape was used to seal back the window and the eggs were further incubated without the rotation setting. After 12 days of incubation the CAM integration was assessed by visual inspection and photographed with a digital camera (Canon EOS); the CAM membrane along with gelatin sponge were harvested and its hemoglobin (Hb.) estimation was done by Drabkin's method according to the manufacturer's protocol (Sigma, St. Louis, Mo.). Absorbance was measured at 540 nm and hemoglobin concentration was calculated.

Data set [2] concerns HUVECs. The experiment in a line: Wound healing (scratch) migration assay. The conditions noted are these: 50 ng/mL, positive control. The data set is classed as cell-based, human. As to the method: FIG. 4 represents In vitro wound closure assay showing effect of Compound 1 migration of HUVECs. (A) ECs were incubated with 2.5% FBS in the presence of VEGF, sunitinib and Compound 1 at the indicated concentrations for 24 h after linear scratched wounds were created in the confluent cells. Post treatment photographs were taken at 0 hr, 12 h and 24 h using an inverted microscope at 10×magnification. (B) Data were quantified using Image J software and graphs were plotted by calculating the % migration of that vehicle treated cells (control). Compound 1 inhibits the wound closure by ECs in a dose dependent manner. The values represent the mean±SEM from (n=3) independent experiments with significant difference compared from control at *p<0.05.
As per previous reports, some anti-angiogenic compounds also show anti-migratory effect by modulating the expression of proteins responsible for blood vessels formation. A Scratch was made to the confluent endothelial cells containing VEGF (50 ng/mL) and sunitinib (50 nM) as a positive and negative control respectively and Compound 1 at 250 nM and 125 nM as a test compound. […] This might contribute to its potent anti-angiogenic effect.
Endothelial cells were grown inside 6-well plate at a confluency rate of 90%. And then with the help of 200 μL tip a straight line scratch was made in the middle of the grown ECs. After giving a gentle wash with 1×PBS, control group received vehicle in 2.5% FBS media. VEGF at 50 ng/mL as a positive control and sunitinib at 50 nM concentration was used as a negative control. Compound 1 at a dose concentration of 250 nM and 125 nM were used onto the wounded cells to observe its anti-migratory effect. After 0 h, 12 h and 24 h of post treatment the wound closure area was observed and micrographed using an inverted microscope (Olympus, Centre Valley, Pa., USA) and were analysed by Image J software. Control well at 100% was used to express inhibition percentage and the assay was performed for three-five times independently.

pIC50: −log10 of the molar value.

For the compound `CCOC(=O)C1N=C1CCc1ccc(OC)c(OC)c1` (centres unmarked) [Compound 34, Ethyl 3-(3,4-dimethoxyphenethyl)-2H-azirine-2-carboxylate], the melting point (usually the temperature of the solid-liquid transition) lay in the range of 55 to 57 °C. Also, the pIC50 (usually −log10 of the IC50, conventionally taken in molar units) in the data set with HUVECs [1] was 6.60.

Take `CCOC(=O)C1N=C1/C=C/c1ccc(N(C)C)cc1` (centres unmarked) [Compound 46, Ethyl (E)-3-(4-(dimethylamino)styryl)-2H-azirine-2-carboxylate]: the melting point lay within 119 to 121 °C. The pIC50 in the data set on HUVECs [1] is 6.30.

On to Sunitinib Maleate [reference compound], for which the values for the tubule formation in the data set on HUVECs [1] (20 nM) and with HUVECs [1] (50 nM) were 40% and 25%, respectively. Besides, the “growth of HCT116 cells xenografts” value in the data set with HCT116 colon tumor (25 mg/kg, 15 days) is reported as “powerful inhibitory effect”. For the same compound, in the data set with HCT116 colon tumor (40 mg/kg orally for 21 days, vs vehicle), the tumor volume entry is “progressive significant decrease in tumor volume”. Moreover, the tumor reduction in the data set on HCT116 colon tumor (in comparison to vehicle treated control group, end of experiment) stood at 54.58%. In the data set with chick CAM, this compound showed a hemoglobin content of 100 µg/mL.

Take VEGF [reference compound]: the wound closure in the data set on HUVECs [2] stood at 90%.

The values are drawn from US20230234920A1, “Azirine Containing Compounds as Anti-Angiogenesis Agents and a Process for the Preparation Thereof” (COUNCIL OF SCIENTIFIC & INDUSTRIAL RESEARCH, priority 2020, published 2023).
